This is an account of results in ChEMBL document CHEMBL5150014, “Discovery and Development of Dolastatin 10-Derived Antibody Drug Conjugate Anticancer Drugs” (J Nat Prod, 2022).

Starred links: 1 amine or outer side, 2 acyl side, 3 side chain; linkers in the order of their positions; H or OH if unused. Non-standard residues stand in square brackets, D forms with d. Residues, ends and D or L forms follow the SMILES beside them. *: point of attachment. X2 = CO[C@H]([C@@H](C)C(=O)[*:2])[C@@H]1C[C@@H]2C[C@@H]2N1[*:1]; NMeVal(N-(CH2)3COOH) = CC(C)[C@@H](C(=O)*)N(C)CCCC(=O)O; Dolaproine = CO[C@@H]([C@@H]1CCCN1)[C@@H](C)C(=O)O; Dil = CC[C@H](C)[C@H](NC)[C@@H](CC(=O)O)OC; Phe(2-Cl) = N[C@@H](Cc1ccccc1Cl)C(=O)O; Phe(2-F) = N[C@@H](Cc1ccccc1F)C(=O)O; NMe2Val = CC(C)[C@@H](C(=O)*)N(C)C; Oxazinan2yl(1,2) = C1CCN(*)OC1; X4 = C1=C[C@H]2CC[C@@H]1N(*)O2; NMeV = CN[C@H](C(=O)O)C(C)C; NHOH = ON* Where only a bound is given, the exact number is not on record here.

The subject of one assay is BT-474. Briefly: Anticancer activity against human BT-474 assessed as cell growth inhibition incubated for 4 days by WST-8 assay. The assay is classed as functional. As to conditions: BT-474, 96 h, time 4 day. Background: Tetrazolium dyes change colour on reduction, which living cells bring about.
The subject of another assay is HT-29. Briefly: Cytotoxicity against human HT-29 cells assessed as cell growth inhibition. It counts as functional, cell-based.
In the next assay the test system is MOLM-13. Briefly: Cytotoxicity against human MOLM-13 cells assessed as cell growth inhibition. It counts as functional, cell-based.
For a further assay, the system named is SK-BR-3. Briefly: Cytotoxicity against human SK-BR-3 cells assessed as cell growth inhibition incubated for 72 hrs by CellTiter-Glo assay. It counts as functional. For orientation: ATP-based viability assays read luminescence as a measure of living cells.
In assay [1] the test system is Panel NCI-60 (60 carcinoma cell lines). Briefly: Cytotoxicity against human Panel NCI-60 (60 carcinoma cell lines) assessed as cell growth inhibition. It counts as functional, cell-based.

For orientation: GI50 means the concentration at which growth is held to half of that of the control. For `CC[C@H](C)[C@@H]([C@@H](CC(=O)N1C[C@@H](OC)C[C@H]1[C@H](OC)[C@@H](C)C(=O)NCCc1ccccc1)OC)N(C)C(=O)[C@@H](NC(=O)[C@H](C(C)C)N(C)C)C(C)C`, the GI50 in the assay on BT-474 was determined as 0.24 nM.

By IC50 is commonly meant the concentration needed to halve the response being measured. Turning to `CC[C@H](C)[C@@H]([C@@H](CC(=O)N1CCC[C@H]1[C@H](OC)[C@@H](C)C(=O)NC1(C(=O)N2CCCCO2)C[C@@H]1c1ccccc1)OC)N(C)C(=O)[C@@H](NC(=O)[C@H](C(C)C)N(C)C)C(C)C` (some centres undefined), the IC50 in the assay with HT-29 was 0.5 nM.

In the case of `CC[C@H](C)[C@@H]([C@@H](CC(=O)N1C[C@@H](O)C[C@H]1[C@H](OC)[C@@H](C)C(=O)NCCc1c(F)cccc1F)OC)N(C)C(=O)[C@@H](NC(=O)[C@H](C(C)C)N(C)C)C(C)C`, the GI50 with BT-474 stood at 0.23 nM.

For `CC[C@H](C)[C@@H]([C@@H](CC(=O)N1C[C@H](O)C[C@H]1[C@H](OC)[C@@H](C)C(=O)NCCc1ccccc1)OC)N(C)C(=O)[C@@H](NC(=O)[C@H](C(C)C)N(C)C)C(C)C`, the GI50 with BT-474 stood at 0.68 nM.

Take `CC[C@H](C)[C@@H]([C@@H](CC(=O)N1CCC[C@H]1[C@H](OC)[C@@H](C)C(=O)N[C@H](/C=C\c1ccccc1)Cc1ccccc1)OC)N(C)C(=O)[C@@H](NC(=O)[C@H](C(C)C)N(C)CCCC(=O)O)C(C)C`: the IC50 with HT-29 was 3.3 nM.

In the case of `CC[C@H](C)[C@@H]([C@@H](CC(=O)N1CCC[C@H]1[C@H](OC)[C@@H](C)C(=O)N[C@@H](Cc1ccccc1)c1nnc(-c2ccccc2)o1)OC)N(C)C(=O)[C@@H](NC(=O)[C@H](C(C)C)N(C)CCCC(=O)O)C(C)C`, in the assay on HT-29, the IC50 worked out at 0.1 nM.

Consider `CC[C@H](C)[C@@H]1[C@H](OC)CC(=O)N2C[C@H](C[C@H]2[C@H](OC)[C@@H](C)C(=O)N[C@@H](Cc2ccccc2)C(=O)OC)NC(=O)CCCC(=O)N[C@@H](C)[C@H](NC(=O)[C@H](NC)C(C)C)C(=O)N1C`, for which the IC50 in the assay with MOLM-13 is more than 1000 nM.

In the case of `CC[C@H](C)[C@@H]([C@@H](CC(=O)N1C[C@@H](N=[N+]=[N-])C[C@H]1[C@H](OC)[C@@H](C)C(=O)N[C@@H](Cc1ccccc1)C(=O)OC)OC)N(C)C(=O)[C@@H](NC(=O)[C@H](C(C)C)N(C)C)[C@H](C)N=[N+]=[N-]`, the GI50 with MOLM-13 amounted to 0.057 nM.

As for `CC[C@H](C)[C@@H]([C@@H](CC(=O)N1C[C@@H](NC)C[C@H]1[C@H](OC)[C@@H](C)C(=O)NCCc1c(F)cccc1F)OC)N(C)C(=O)[C@@H](NC(=O)[C@H](C(C)C)N(C)C)C(C)C`, the GI50 with BT-474 was 0.34 nM.

`CC[C@H](C)[C@@H]([C@@H](CC(=O)N1C[C@@H](N)C[C@H]1[C@H](OC)[C@@H](C)C(=O)NCCc1c(F)cccc1F)OC)N(C)C(=O)[C@@H](NC(=O)[C@H](C(C)C)N(C)C)C(C)C`: the GI50 in the assay on BT-474 was 0.17 nM.

Regarding `CC[C@H](C)[C@@H]([C@@H](CC(=O)N1CCC[C@H]1[C@H](OC)[C@@H](C)C(=O)NC1(C(=O)N2Cc3ccccc3CO2)C[C@@H]1c1ccccc1)OC)N(C)C(=O)[C@@H](NC(=O)[C@H](C(C)C)N(C)C)C(C)C` (some centres undefined), the IC50 with HT-29 was found to be 1.2 nM.

On to `CC[C@H](C)[C@@H]([C@@H](CC(=O)N1CCC[C@H]1[C@H](OC)[C@@H](C)C(=O)N[C@H](/C=C/c1ccccc1)Cc1ccccc1)OC)N(C)C(=O)[C@@H](NC(=O)[C@H](C(C)C)N(C)CCCC(=O)O)C(C)C`, for which the IC50 in the assay on HT-29 was 0.3 nM.

As to `CC[C@H](C)[C@@H]([C@@H](CC(=O)N1CC(=O)C[C@H]1[C@H](OC)[C@@H](C)C(=O)NCCc1ccccc1)OC)N(C)C(=O)[C@@H](NC(=O)[C@H](C(C)C)N(C)C)C(C)C`, the GI50 in the assay with BT-474 was 5.23 nM.

`CC[C@H](C)[C@@H]([C@@H](CC(=O)N1CCC[C@H]1[C@H](OC)[C@@H](C)C(=O)N[C@@H](Cc1ccccc1F)C(=O)O)OC)N(C)C(=O)[C@@H](NC(=O)[C@@H](NC)C(C)C)C(C)C` (H-[NMeV]V[Dil][Dolaproine][Phe(2-F)]-OH): the GI50 with SK-BR-3 was 81.6 nM.

In the case of `CC[C@H](C)[C@@H]([C@@H](CC(=O)N1[C@H]2C[C@H]2C[C@H]1[C@H](OC)[C@@H](C)C(=O)N[C@@H](Cc1ccccc1Cl)C(=O)O)OC)N(C)C(=O)[C@@H](NC(=O)[C@@H](NC)C(C)C)C(C)C` (H-[NMeV]V[Dil][X2][Phe(2-Cl)]-OH), the GI50 in the assay on SK-BR-3 was determined as 1.06 nM.

`CC[C@H](C)[C@@H]([C@@H](CC(=O)N1[C@H]2C[C@H]2C[C@H]1[C@H](OC)[C@@H](C)C(=O)N[C@@H](Cc1ccccc1)C(=O)O)OC)N(C)C(=O)[C@@H](NC(=O)[C@@H](NC)C(C)C)C(C)C` (HELM PEPTIDE1{[meV].V.[CC[C@H](C)[C@@H]([C@@H](CC(=O)[*:2])OC)N(C)[*:1]].[CO[C@H]([C@@H](C)C(=O)[*:2])[C@@H]1C[C@@H]2C[C@@H]2N1[*:1]].F}$$$$V2.0): the GI50 in the assay with SK-BR-3 is 1.11 nM.

Consider `CC[C@H](C)[C@@H]([C@@H](CC(=O)N1C[C@@H](F)C[C@H]1[C@H](OC)[C@@H](C)C(=O)N[C@@H](Cc1ccccc1)C(=O)O)OC)N(C)C(=O)[C@@H](NC(=O)[C@@H](NC)C(C)C)C(C)C` (HELM PEPTIDE1{[meV].V.[CC[C@H](C)[C@@H]([C@@H](CC(=O)[*:2])OC)N(C)[*:1]].[CO[C@H]([C@@H](C)C(=O)[*:2])[C@@H]1C[C@H](F)CN1[*:1]].F}$$$$V2.0), for which the GI50 in the assay on SK-BR-3 came to 81.7 nM.

Turning to `CC[C@H](C)[C@@H]([C@@H](CC(=O)N1CCC[C@H]1[C@H](OC)[C@@H](C)C(=O)N[C@@H](Cc1ccccc1)C(=O)O)OC)N(C)C(=O)[C@@H](NC(=O)[C@H](C(C)C)N(C)C)C(C)C` (NMe2Val-V[Dil][Dolaproine]F-OH), the IC50 in assay [1] came out at 105 nM.

As to `CC[C@H](C)[C@@H]([C@@H](CC(=O)N1CCC[C@H]1[C@H](OC)[C@@H](C)C(=O)N[C@@H](Cc1ccccc1)C(=O)OC)OC)N(C)C(=O)[C@@H](NC(=O)[C@H](C(C)C)N(C)C)C(C)C` (NMe2Val-V[Dil][Dolaproine]F-OMe), in assay [1], the GI50 worked out at 0.2 nM.

With `CC[C@H](C)[C@@H]([C@@H](CC(=O)N1CCC[C@H]1[C@H](OC)[C@@H](C)C(=O)N[C@@H](Cc1ccccc1)C(=O)N1O[C@H]2C=C[C@@H]1CC2)OC)N(C)C(=O)[C@@H](NC(=O)[C@H](C(C)C)N(C)C)C(C)C` (NMe2Val-V[Dil][Dolaproine]F-X4), in the assay with HT-29, the IC50 came out at 0.5 nM.

For the compound `CC[C@H](C)[C@@H]([C@@H](CC(=O)N1CCC[C@H]1[C@H](OC)[C@@H](C)C(=O)N[C@@H](CC(C)C)C(=O)NO)OC)N(C)C(=O)[C@@H](NC(=O)[C@H](C(C)C)N(C)C)C(C)C` (NMe2Val-V[Dil][Dolaproine]L-{NHOH}), the GI50 in the assay with SK-BR-3 was 3 nM.

For the compound `CC[C@H](C)[C@@H]([C@@H](CC(=O)N1CCC[C@H]1[C@H](OC)[C@@H](C)C(=O)N[C@@H](Cc1c[nH]c2ccccc12)C(=O)N1CCCCO1)OC)N(C)C(=O)[C@@H](NC(=O)[C@H](C(C)C)N(C)C)C(C)C` (NMe2Val-V[Dil][Dolaproine]W-{Oxazinan2yl(1,2)}), in the assay on HT-29, the IC50 turned out to be 0.5 nM.

In the case of `CC[C@H](C)[C@@H]([C@@H](CC(=O)N1CCC[C@H]1[C@H](OC)[C@@H](C)C(=O)N[C@@H](Cc1c[nH]c2ccccc12)C(N)=O)OC)N(C)C(=O)[C@@H](NC(=O)[C@H](C(C)C)N(C)CCCC(=O)O)C(C)C` ({NMeVal(N-(CH2)3COOH)}-V[Dil][Dolaproine]W-NH2), the IC50 with HT-29 was 16 nM.

With `CC[C@H](C)[C@@H]([C@@H](CC(=O)N1CCC[C@H]1[C@H](OC)[C@@H](C)C(=O)NCCc1ccccc1)OC)N(C)C(=O)[C@@H](NC(=O)[C@H](C(C)C)N(C)C)C(C)C` [SOBLIDOTIN], the GI50 in assay [1] was 0.49 nM.
